Assay results from ChEMBL document CHEMBL3639096, “Bivalent inhibitors of IAP proteins and therapeutic methods using the same” (2014).

Tests used:
[1] = molecular target: Baculoviral IAP repeat-containing protein 3 (Homo sapiens, UniProt Q13489); assay: (§1) For cIAP-1 BIR3 and cIAP-2 BIR3 assays, a fluorescently labeled Smac mimetic (Smac-2F) was used as the fluorescent probe. The Kd values of Smac-2F to cIAP-1 BIR3 and cIAP-2 BIR3 were determined by monitoring the total fluorescence polarization of mixtures composed with the fluorescent probe at a fixed concentration and proteins with increasing concentrations up to full saturation. Fluorescence polarization values were measured using the Infinite M-1000 plate reader (Tecan U.S., Research Triangle Park, N.C.) in Microfluor 2 96-well, black, round-bottom plates (Thermo Scientific). To each well, 1 nM of SMAC-2F and increasing concentrations of protein were added to a final volume of 125 ul in the assay buffer (100 mM potassium phosphate, pH 7.5).
[2] = molecular target: Baculoviral IAP repeat-containing protein 2 (Homo sapiens, UniProt Q13490); assay: as §1
[3] = molecular target: E3 ubiquitin-protein ligase XIAP (Homo sapiens, UniProt P98170); assay: as §1

SMILES	IC50 [1] [nM]	IC50 [2] [nM]	IC50 [3] [nM]
CN[C@@H](C)C(=O)N[C@H]1CN(C(=O)Nc2ccc(CCc3ccc(NC(=O)N4CC[C@H]5CC[C@@H](C(=O)NC(c6ccccc6)c6ccccc6)N5C(=O)[C@@H](NC(=O)[C@H](C)NC)C4)cc3)cc2)CC[C@H]2CCC(C(=O)NC(c3ccccc3)c3ccccc3)N2C1=O (some centres not stated)	< 300	< 300	< 30
CN[C@@H](C)C(=O)N[C@H]1CN(C(=O)Nc2ccc(NC(=O)N3CC[C@H]4CC[C@@H](C(=O)N[C@H]5C[C@@H]5c5ccccc5F)N4C(=O)[C@@H](NC(=O)[C@H](C)NC)C3)cc2)CC[C@H]2CC[C@@H](C(=O)N[C@H]3C[C@@H]3c3ccccc3F)N2C1=O	< 1000	< 1000	< 1000
CN[C@@H](C)C(=O)N[C@H]1CN(C(=O)Nc2ccc(NC(=O)N3CC[C@H]4CC[C@@H](C(=O)N[C@H]5CCC[C@H]5c5ccccc5)N4C(=O)[C@@H](NC(=O)[C@H](C)NC)C3)cc2)CC[C@H]2CC[C@@H](C(=O)N[C@H]3CCC[C@H]3c3ccccc3)N2C1=O	< 1000	< 1000	< 1000
CN[C@@H](C)C(=O)N[C@H]1CN(C(=O)Nc2ccc(NC(=O)N3CC[C@H]4CC[C@@H](C(=O)N[C@H]5C[C@@H]5c5ccc(C(F)(F)F)c(F)c5)N4C(=O)[C@@H](NC(=O)[C@H](C)NC)C3)cc2)CC[C@H]2CC[C@@H](C(=O)N[C@H]3C[C@@H]3c3ccc(C(F)(F)F)c(F)c3)N2C1=O	< 3000	< 3000	< 3000
CN[C@@H](C)C(=O)N[C@H]1CN(C(=O)Nc2ccc(Cc3ccc(NC(=O)N4CC[C@H]5CC[C@@H](C(=O)N[C@H]6C[C@@H]6c6ccccc6)N5C(=O)[C@@H](NC(=O)[C@H](C)NC)C4)cc3)cc2)CC[C@H]2CCC(C(=O)N[C@H]3C[C@@H]3c3ccccc3)N2C1=O (some centres not stated)	< 3000	< 3000	< 1000
CN[C@@H](C)C(=O)N[C@H]1CN(C(=O)NCCCCCCNC(=O)N2CC[C@H]3CC[C@@H](C(=O)N[C@H]4CCC[C@H]4c4ccccc4)N3C(=O)[C@@H](NC(=O)[C@H](C)NC)C2)CC[C@H]2CCC(C(=O)N[C@H]3CCC[C@H]3c3ccccc3)N2C1=O (some centres not stated)	< 3000	< 3000	< 1000
CN[C@@H](C)C(=O)N[C@H]1CN(C(=O)NCCCCCCNC(=O)N2CC[C@H]3CC[C@@H](C(=O)NC4Cc5ccccc5C4)N3C(=O)[C@@H](NC(=O)[C@H](C)NC)C2)CC[C@H]2CCC(C(=O)NC3Cc4ccccc4C3)N2C1=O (some centres not stated)	< 5000	< 10000	< 1000
CN[C@@H](C)C(=O)N[C@H]1CN(C(=O)NCCCCCCNC(=O)N2CC[C@H]3CC[C@@H](C(=O)NCCc4ccccc4)N3C(=O)[C@@H](NC(=O)[C@H](C)NC)C2)CC[C@H]2CCC(C(=O)NCCc3ccccc3)N2C1=O (some centres not stated)	< 5000	< 1000	< 1000
CN[C@@H](C)C(=O)N[C@H]1CN(C(=O)NCCCCCCNC(=O)N2CC[C@H]3CC[C@@H](C(=O)N[C@H]4CC[C@@H]4c4ccccc4)N3C(=O)[C@@H](NC(=O)[C@H](C)NC)C2)CC[C@H]2CCC(C(=O)N[C@H]3CC[C@@H]3c3ccccc3)N2C1=O (some centres not stated)	< 1000	< 1000	< 1000
